Experimental data published in patent US6855728B2, “Small-molecule modulators of hepatocyte growth factor / scatter factor activities” (North Shore-Long Island Jewish Health System, priority 2001, dated 2005).

What was measured:
[1] = test system: HGF/SF induced proliferation of HUVEC; test: Endothelial cell (HUVEC) proliferation assay in the presence of exogenously-added HGF/SF; format: cell-based, human; conditions: with HGF/SF; for Activity at 2 microgram/ml With HGF/SF (result in words) / inhibition at 2 µg/mL: 2 microgram/ml; for inhibition at 2 µg/mL: read-out: Activity at 2 microgram/ml With HGF/SF: inhibition (blocked SF); for inhibition at 6 µg/mL: read-out: Activity at 6 microgram/ml With HGF/SF: inhibition (blocked SF); for Stimulation at 6-12 micrograms/ml With: stimulation of endothelial cell proliferation
Excerpt: To evaluate inhibitors of activity, compounds may be evaluated directly for anti-proliferative activities, such as the inhibition of cellular proliferation, inhibition of tumor growth, inhibition of scatter, and inhibition of gene expression, and may also be evaluated on their ability to inhibit activity when exposed to cells together with. In such instances, the scatter and/or proliferative activities induced by added will be inhibited by the attendant presence of an inhibitory compound of the invention.
(§1) Cell proliferation assays Endothelial cells (HUVECs) were seeded in 48 well plates at a density of 10,000 to 20,000 cells per well in the normal growth medium (EGM-2-Clonetics) containing 2% fetal bovine serum, FGF, VEGF, IGF, ascorbic acid, EGF, GA, heparin and hydrocortisone. The cells were grown normally in the growth medium for 24 hr at 37 degrees C. and 5% CO2. The cells were then rinsed with RPMI-1% BSA and starved for 1-2 hrs. The stock solutions of all the compounds were made at a concentration of 10 mg/ml in DMSO and diluted in RPMI-1% BSA at a final concentrations of 1 to 12 microgram/ml. The cells were then washed and treated with the compounds and incubated for another 24 hr at 37 degrees C. Then ^3H thymidine (0.5 microgram/ml in RPMI-BSA) was added to the cells and incubated at 37 degrees C. for 4 to 5 hours. The unincorporated thymidine was removed by washing the cells four times with 1× PBS. Then the cells were lysed with 0.5M NaOH for 30 min and the radioactivity counted in the beta counter.

[2] = test system: Endothelial cells (HUVECs); test: Endothelial cell (HUVEC) proliferation assay, 3H thymidine incorporation, compound without added growth factor; format: cell-based, human; conditions: for Inhibition at 6-12 micrograms/ml Without HGF/SF: inhibition of endothelial cell proliferation; for Activity at 2 microgram/ml Without HGF/SF: stimulation: stimulation of HUVEC proliferation; for Activity at 6 microgram/ml Without HGF/SF (result in words) / inhibition at 6 µg/mL: 6 microgram/ml; for inhibition at 6 µg/mL: inhibition of HUVEC proliferation
Experimental: as §1, with “counter. […]” for “counter.”

[3] = Homo sapiens, inhibition of HUVEC proliferation
[4] = Homo sapiens, 6 microgram/ml, inhibition of HUVEC proliferation
[5] = without HGF/SF, stimulation of endothelial cell proliferation
[6] = 6-12 micrograms/ml, inhibition of endothelial cell proliferation

c1ccc(-c2sc(-c3ccccc3)c(-c3ccccc3)c2-c2ccccc2)cc1 [tetraphenylthiophene]
Stimulation/Inhibition at 6-12 micrograms/ml With (result in words) ([1]; 6-12 micrograms/ml): No effect
Inhibition at 6-12 micrograms/ml Without HGF/SF ([2]; without HGF/SF): 50% inhibition

Cc1nn(C)c(C)c1Cc1c(F)cccc1Cl [4-(2-chloro-6-fluorobenzyl)-1,3,5-trimethyl-1H-1-pyrazole]
Activity at 2 microgram/ml With HGF/SF (result in words) [1]: No effect
Activity at 6 microgram/ml With HGF/SF: inhibition (blocked SF) ([1]; 6 microgram/ml, inhibition of HUVEC proliferation): by 30%
Activity at 2 microgram/ml Without HGF/SF: stimulation ([2]; without HGF/SF): 50%
Activity at 6 microgram/ml Without HGF/SF (result in words) ([2]; without HGF/SF): No effect

Cc1nn(C(=O)c2c(Cl)cccc2Cl)c(C)c1Cc1c(F)cccc1Cl [(4-(2-chloro-6-fluorobenzyl)-3,5-dimethyl-1H-pyrazole-1-yl)(2,6-dichlorophenyl)methanone]
inhibition at 2 µg/mL [1, 3]: 23%
inhibition at 6 µg/mL [1, 4]: 90%
Activity at 2 microgram/ml Without HGF/SF (result in words) ([2]; without HGF/SF): not significant
Activity at 6 microgram/ml Without HGF/SF (result in words) ([2]; without HGF/SF): not significant

C1=C(c2ccccc2)c2ccccc2C1(c1ccccc1)c1ccccc1 [1,1,3-triphenylinedene]
Stimulation at 6-12 micrograms/ml With ([1]; 6-12 micrograms/ml): 30-40% stimulation
Stimulation at 6-12 micrograms/ml Without HGF/SF [2, 5]: 50-100% stimulation

c1ccc(-c2cc(-c3ccccc3)c(-c3ccccc3)c(-c3ccccc3)c2-c2ccccc2)cc1 [pentaphenylbenzene]
Inhibition at 6-12 micrograms/ml With [1, 6]: 50% inhibition
Stimulation at 6-12 micrograms/ml Without HGF/SF [2, 5]: two to three fold stimulation

c1ccc2c(c1)cc(-c1cc3ccccc3c3ccccc13)c1ccccc12 [9,9-Biphenanthrene]
Inhibition at 6-12 micrograms/ml With [1, 6]: 20-40% inhibition
Stimulation/Inhibition at 6-12 micrograms/ml Without HGF/SF (result in words) ([2]; without HGF/SF): No effect

CC(=O)C1=C(C)C[C@H]2[C@@H]3CC=C4C[C@@H](O)CC[C@]4(C)[C@H]3CC[C@]12C [16 methyl-16 Dehydropregnenolone]
Stimulation at 6-12 micrograms/ml With ([1]; 6-12 micrograms/ml): 30% stimulation
Stimulation/Inhibition at 6-12 micrograms/ml Without HGF/SF (result in words) ([2]; without HGF/SF): No effect

CC(C)(C)c1n[nH]c(C(C)(C)C)c1Cc1c(F)cccc1Cl [3,5-di(tert-butyl)-4-(2-chloro-6-fluorobenzyl)-1H-pyrazole]
inhibition at 2 µg/mL [1, 3]: 25%
inhibition at 6 µg/mL [1, 4]: 50%
Activity at 2 microgram/ml Without HGF/SF: stimulation ([2]; without HGF/SF): 51%
Activity at 6 microgram/ml Without HGF/SF (result in words) ([2]; without HGF/SF): No effect

Cc1onc(-c2c(Cl)cccc2Cl)c1C(=O)NNC(=S)Oc1ccccc1[N+](=O)[O-] [2-nitrophenyl 2-((3-(2,6-dichlorophenyl)-5-methylisoxazol-4-yl)carbonyl)hydrazine-1-carbothioate]
Activity at 2 microgram/ml With HGF/SF (result in words) [1]: No effect
inhibition at 6 µg/mL [1, 4]: 80%
Activity at 2 microgram/ml Without HGF/SF (result in words) ([2]; without HGF/SF): No effect
inhibition at 6 µg/mL ([2]; Homo sapiens, without HGF/SF): 80%

Cc1cc(C)cc(Sc2ccc3nnc(-c4ccccc4)n3n2)c1 [6-(3,5-Dimethylphenyl) Thio)-3-Phenyl (1,2,4-Triazolo(4,3-b)pyridazine]
inhibition at 1 µg/mL ([1]; Homo sapiens, HUVEC, 1 ug/ml, inhibition of endothelial cell proliferation, read-out: Activity at 1 ug/ml concentration With HGF/SF: inhibition): 30%
Activity at 1 ug/ml concentration Without HGF/SF (result in words) ([2]; 1 ug/ml, without HGF/SF): no significant effect

Cc1nn(C(=O)C(C)(C)C)c(C)c1Cc1c(F)cccc1Cl [1-(4-(2-chloro-6-fluorobenzyl)-3,5-dimethyl-1H-pyrazole-1-yl)2,2-dimethylpropan-1-one]
inhibition at 2 µg/mL [1, 3]: 25%
inhibition at 6 µg/mL [1, 4]: 25%
Activity at 2 microgram/ml Without HGF/SF (result in words) ([2]; without HGF/SF): No effect
Activity at 6 microgram/ml Without HGF/SF (result in words) ([2]; without HGF/SF): No effect

Cc1nn(C(=O)c2ccc(Cl)cc2)c(C)c1Cc1c(F)cccc1Cl [(4-(2-chloro-6-fluorobenzyl)-3,5-dimethyl-1H-pyrazol-1-yl)(4-chlorophenyl)methanone]
inhibition at 2 µg/mL [1, 3]: 30%
inhibition at 6 µg/mL [1, 4]: 90%
Activity at 2 microgram/ml Without HGF/SF: stimulation ([2]; without HGF/SF): 40%
activation at 5 µg/mL ([2]; Homo sapiens, HUVEC, 24 h, 5 microg/ml, stimulation of endothelial cell proliferation): 41%
activation at 10 µg/mL ([2]; Homo sapiens, HUVEC, 24 h, 10 microg/ml, stimulation of endothelial cell proliferation): 35%
inhibition at 6 µg/mL ([2]; Homo sapiens, without HGF/SF): 50%

Cc1ccc(N=Cc2ccco2)c(C)c1 [N-(furfurylidene)-2,4-xylidine]
Inhibition at 6-12 micrograms/ml With [1, 6]: 50-60% inhibition
Inhibition at 6-12 micrograms/ml Without HGF/SF ([2]; without HGF/SF): 30-40% inhibition
